According to patent publication EP1985629A1, “Pro-apoptotic molecules and therapeutic uses thereof” (UNIVERSITA DEGLI STUDI DI GENOVA, priority 2007, dated 2008):
Where a SMILES comes first, the peptide text is derived from it. [ ]: non-standard residue; d: D form. Aib = CC(C)(N)C(=O)O

Key:
[1] = Circular dichroism, relative content of secondary structure elements; assay type: physicochemical; parameters: key to α-Helix / β-Strands / β-Turns / Random: relative content as fraction, from CDSSTR deconvolution; conditions: CDSSTR deconvolution
Protocol: Circular dichroism (CD) spectra in the far-UV region (190-260 nm) were collected on a Jasco J-715 spectropolarimeter using a 0.1 cm path-length cuvette. Temperature was kept at 25°C by a Peltier device. Peptide concentration was determined from the absorption of the aromatic residues at 280 nm.
Peptides solutions: Bim-BH3Y and Bim-BH3YA2Aib were suspended in water and potassium hydroxide was added up to complete solubilization. 072RB was dissolved in water. Concentration of stock solutions was about 0.1 mg/ml. For circular dichroism measurements, stock solutions were diluted in 10 mM potassium phosphate buffer, pH 7.
The relative content of secondary structure elements was calculated with the deconvolution program CDSSTR [31] (Table 2). […] 072RB has the highest helical content in the set examined here (0.30 α-helix percent).

Bcl-XL = target: T1, Bcl-XL (Homo sapiens, UniProt Q07817, S2L); assay: Fluorescence anisotropy binding and competition binding assay; conditions: competition binding assay: BakF-BH3 2E-8 M, competitor peptide 2E-7 M, Bcl-XL 2E-8 M to 1E-6 M; 45 min, 30°C; read-out: Weighted mean Kd
T1 construct: with the C-terminus truncated; His6; made in house; host or cells: Escherichia coli BL21 (pLys)
Protocol: Fluorescence Anisotropy was monitored with a Polarion Instrument (Tecan, Austria): excitation wavelength = 485 nm, emission wavelength = 535 nm. […] Anisotropy values were studied at a fixed concentration of fluoresceinated Bak BH3 molecule (2E-8 M), a fixed concentration of peptide inhibitors (2E-7 M) and increasing concentrations of Bel-XL (from 2E-8 M to 1E-6 M). Experiments were performed in 96-wells black non-binding plates (Corning), the experimental volume was always 200 µl / well. Reagents were mixed at room temperature and maintained at a constant temperature (30°C) during the measurements. Anisotropy measurements were performed at different times of incubation to assess the stability of the reactions. […]
For simple binding experiments we evaluated the Kd using a nonlinear regression analysis [NLIN SAS] to fit the Lundblad equation [38]. […]
We calculated the expected Anisotropy value solving a third degree equation obtained extending the simple binding equation to a competitive binding inhibition assay. […]
Point estimates of each equilibrium constant were evaluated using meta-analytical tools weighting each experimental result for its estimated variance. […]
Fluorescence Anisotropy (FA) is a quantitative technique to analyze the interaction of a smaller fluorescent molecule with a larger non fluorescent molecule. […]

[2] = Peptides stability in medium with 10% FBS or in 100% FBS (HPLC-MS); assay type: in vitro ADME; conditions: medium (RPMI 1640) with 10% FBS, 37°C, 32 µM; calculated by linear regression
Protocol: Compounds were added to the medium solution of serum 10% or 100% FBS at the final concentration of 32 µM. Several extraction mixtures were attempted: MeOH; MeOH with 0,1% trifluoroacetic acid (TFA); (H2O: MeOH) 1:1, 1:4, 4;1. A perchloric acid (PCA) protein precipitation protocol was also tried. […] In both cases ice-cold methanol was added to the peptide solution. The mixture was centrifuged and the resulting supernatant was then added with ice-cold methanol (alone or containing 0,1% TFA) at a 1:1 final ratio and this procedure was repeated twice. Before extraction peptides were incubated in 10% FBS or 100% FBS at 37°C and, at different incubation times (0', 6, 24 and 48 hours), a sample of 50 µl was collected to be analyzed by HPLC-MS.

[3] = relative content, 10 mM potassium phosphate buffer, pH 7, 25°C

T1 sequence (Q07817 1-212 S2L): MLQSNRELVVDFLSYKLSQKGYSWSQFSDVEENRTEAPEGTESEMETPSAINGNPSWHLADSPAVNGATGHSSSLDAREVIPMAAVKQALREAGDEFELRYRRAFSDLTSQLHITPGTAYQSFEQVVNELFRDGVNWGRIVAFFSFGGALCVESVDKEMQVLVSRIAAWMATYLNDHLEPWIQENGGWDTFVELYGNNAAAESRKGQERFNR

- relative content of helices [1]: 0.15 α-helix percent
- Random [1, 3]: 0.56
- α-Helix [1, 3]: 0.15
- β-Strands [1, 3]: 0.14
- β-Turns [1, 3]: 0.15
- Kd (Bcl-XL): 12 nM
- half-life [2]: 99,0 h
SMILES: CC[C@H](C)[C@H](NC(=O)[C@H](CCCNC(=N)N)NC(=O)[C@H](CCCNC(=N)N)NC(=O)[C@H](CC(C)C)NC(=O)[C@H](CCC(=O)O)NC(=O)[C@H](CCC(N)=O)NC(=O)C(C)(C)NC(=O)[C@@H](NC(=O)[C@H](Cc1ccc(O)cc1)NC(=O)[C@@H](NC(=O)[C@H](CCC(=O)O)NC(=O)[C@@H]1CCCN1C(=O)[C@H](CCCNC(=N)N)NC(=O)[C@H](CCSC)NC(=O)[C@@H](N)CC(=O)O)[C@@H](C)CC)[C@@H](C)CC)C(=O)NCC(=O)N[C@@H](CC(=O)O)C(=O)N[C@@H](C)C(=O)N[C@@H](Cc1ccccc1)C(=O)N[C@@H](CC(N)=O)C(=O)NC(C)(C)C(=O)N[C@@H](Cc1ccc(O)cc1)C(N)=O [Bim-BH3YA2Aib] (H-DMRPEIYI[Aib]QELRRIGDAFN[Aib]Y-NH2; N-terminus and C-terminus assumed)
